Experimental data reported in patent US5506134A, “Hypridoma and monoclonal antibody which inhibits blood coagulation tissue factor/factor VIIa complex” (Corvas International, Inc., priority 1991, dated 1996).

Target: T1, tissue factor:factor VIIa complex (tissue factor on human bladder carcinoma J-82 cells) (Homo sapiens, UniProt P08709)
T1 construct: endogenous in cells; host or cells: J-82 (ATCC HTB-1) human bladder carcinoma cells: source of the tissue factor only
Assay: Factor X activation chromogenic substrate assay (J-82 cells as source of tissue factor, Spectrozyme Xa)
Format: biochemical
Settings: PPACK 1 μM; positive control; 30 min at room temperature, OD-405; read-out: Percent Inhibition of F.X Activation
From the text: The second screening was used to evaluate the ability of isolated antibodies to inhibit tissue factor catalyzed factor VII activity as reflected by the conversion of factor X to factor Xa. The human bladder carcinoma cell line J-82 (ATCC HTB-1) expresses cell surface-associated tissue factor and is used as the source of tissue factor and phospholipids. A chromogenic substrate for factor Xa is used, which develops color proportional to the amount of factor VIIa activity. Conversely, color is not developed if factor VII activity is blocked. The assay is performed as follows. J-82 cells are suspended in tris-buffered saline at a concentration of 1×10^5 cells per mL. Fifty microliters of cell suspension is added to individual wells of a 96-well polystyrene microliter plate. Fifty microliters of hybridoma culture supernatant diluted at least 1:10 is added to appropriate wells followed by 25 μL of 20 mM CaCl2. Negative control is irrelevant hybridoma culture supernatant (such as anti-tPA supernatant) and positive control is 1 μM PPACK (d-phenylalanine-proline-arginine-chloromethylkefone). Twenty-five microliters of 90 nM factor X and 50 λL of substrate Spectrozyme Xa are added to each well. Following thirty minute incubation at room temperature, OD-405 is determined. […]

T1 sequence (P08709 213-466 limits assumed): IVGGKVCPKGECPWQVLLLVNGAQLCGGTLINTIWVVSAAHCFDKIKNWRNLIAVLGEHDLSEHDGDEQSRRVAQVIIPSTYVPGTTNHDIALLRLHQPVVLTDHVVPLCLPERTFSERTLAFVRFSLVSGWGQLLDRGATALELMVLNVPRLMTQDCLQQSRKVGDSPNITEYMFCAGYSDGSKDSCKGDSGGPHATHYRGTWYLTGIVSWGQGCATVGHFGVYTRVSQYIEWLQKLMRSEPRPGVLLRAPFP
T1 sequence (P08709 61-212 limits assumed): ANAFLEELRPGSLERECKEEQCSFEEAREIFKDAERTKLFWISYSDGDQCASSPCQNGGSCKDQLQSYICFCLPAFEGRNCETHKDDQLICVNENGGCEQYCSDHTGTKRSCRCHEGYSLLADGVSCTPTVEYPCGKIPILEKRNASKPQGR
T1 sequence (P13726 33-295 partner): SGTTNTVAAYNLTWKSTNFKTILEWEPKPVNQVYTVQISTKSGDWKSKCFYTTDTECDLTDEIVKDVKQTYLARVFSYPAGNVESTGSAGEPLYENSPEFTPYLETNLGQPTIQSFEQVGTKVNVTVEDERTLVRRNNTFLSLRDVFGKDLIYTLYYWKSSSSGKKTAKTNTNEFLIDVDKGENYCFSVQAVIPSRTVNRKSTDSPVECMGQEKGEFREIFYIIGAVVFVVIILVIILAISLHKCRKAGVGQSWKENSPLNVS

**Q.** How did the inhibition at 1 µM turn out when `N=C(N)NCCC[C@H](NC(=O)[C@@H]1CCCN1C(=O)[C@H](N)Cc1ccccc1)C(=O)CCl` [PPACK, d-phenylalanine-proline-arginine-chloromethylkefone] was run?
**A.** 100%
